Assay results: patent publication US7176185B2, “Short peptide carrier system for cellular delivery of agent” (TSRL, Inc., priority 2003, dated 2007)

Columns and labels:
[1] = target: T1, hpept1 dipeptide transporter (Homo sapiens, UniProt P46059); assay: Inhibition of 3H-Gly-Sar uptake in DC5 cell line (Ki determination); type: cell-based; settings: 50 uM 3H-Gly-Sar, 10 min, 37° C., unit inferred, mM, read-out: TSRL - Ki
T1 construct: expressed in transfected cells; host or cells: DC5 = human medulloblastoma cell line Dpar transfected with a eukaryotic expression plasmid holding the hPept1 gene
T1 sequence (P46059 1-708): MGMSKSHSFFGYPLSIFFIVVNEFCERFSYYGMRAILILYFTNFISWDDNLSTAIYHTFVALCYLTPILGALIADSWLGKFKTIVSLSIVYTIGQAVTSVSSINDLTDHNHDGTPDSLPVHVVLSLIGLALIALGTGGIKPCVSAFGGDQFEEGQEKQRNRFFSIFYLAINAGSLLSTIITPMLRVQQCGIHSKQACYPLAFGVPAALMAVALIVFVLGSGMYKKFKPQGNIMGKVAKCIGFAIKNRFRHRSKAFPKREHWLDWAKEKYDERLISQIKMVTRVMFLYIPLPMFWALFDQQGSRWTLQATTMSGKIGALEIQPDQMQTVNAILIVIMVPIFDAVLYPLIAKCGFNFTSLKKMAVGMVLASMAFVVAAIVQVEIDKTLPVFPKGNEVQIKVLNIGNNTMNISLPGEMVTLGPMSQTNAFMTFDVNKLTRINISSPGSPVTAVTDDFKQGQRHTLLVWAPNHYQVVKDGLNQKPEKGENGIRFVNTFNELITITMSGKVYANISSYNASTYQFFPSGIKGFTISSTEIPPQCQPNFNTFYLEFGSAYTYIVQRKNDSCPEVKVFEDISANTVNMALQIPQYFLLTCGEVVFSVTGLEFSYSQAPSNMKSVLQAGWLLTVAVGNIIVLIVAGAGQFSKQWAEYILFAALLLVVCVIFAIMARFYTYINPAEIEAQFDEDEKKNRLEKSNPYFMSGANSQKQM
Source text: The developed system functions as an initial screen for interaction with the dipeptide transporter by measuring the ability of a given test compound to inhibit the uptake of the marker dipeptide ^3H-Gly-Sar. Using this system in a 96-well format, one can rapidly screen compounds for their ability to bind to the dipeptide transporter by measuring the inhibition constant (Ki) of the compound against Gly-Sar uptake. In this assay, a positive result indicates binding, but not necessarily transport. Positive results are assessed for actual transport in conventional uptake assays.
The inhibitory Ki for a given compound is determined in DC5 cell line using the radioactive substrate 3H-glycine-sarcosine (GS). DC5 cells were plated (12,000 cells/well) in 96-well tissue culture plates (Falcon) and allowed to grow for 2 days. The cells were washed once with 200 ul of uptake buffer and aspirated. The plates were cooled to 4° C. and 25 ul of uptake buffer containing 50 uM Gly-Sar (0.5 uCi/ml) was added. The uptake buffer also contained the test β-lactam antibiotic, Cefaclor, over a range of concentrations. Uptake was initiated by placing the plate in a shaker water bath (37° C.) and terminated at 10 min by rapid washing with multiple changes of 4° C. PBS (Sigma). The radioactive peptide was extracted from the cell layer with 200 ul of methanol:water (1:1) and counted in 4 ml of CytoScint ES™ scintillation cocktail (ICN). Non-linear regression analysis of the data was used to determine the IC50 using the solver function in Microsoft Excel spreadsheets.

[2] = literature value (Bretschneider et al. 1999); 'parenteral' marks drugs given parenterally; cited from earlier work
hPepT1 = target: T2, hPepT1 (Homo sapiens, UniProt P46059); assay: Inhibition of LALA uptake into DC5 cells by competitive substrates; type: cell-based; settings: 30 minutes; for Inhibition of LALA uptake (FIG. 7, specificity): 25 μM LALA, 20 mM dipeptide or 40 mM amino acid
T2 construct: expressed in transfected cells; host or cells: DC5 = human medulloblastoma cell line Dpar transfected with a eukaryotic expression plasmid holding the hPept1 gene
T2 sequence (P46059 1-708): T1 sequence (P46059 1-708)
Method: After 30 minutes the cells are washed and the fluorescence measured in the cells.
DC5 and Dpar cells are incubated in transport buffer and the indicated concentrations of LALA added ? and (¦), respectively. These experiments are repeated in the presence of 20 mM Gly-Pro for DC5 (⋄) and Dpar (?). After 30 minutes, the cells are washed and processed for fluorescent determination. […] After 30 minutes the cells are washed and the fluorescence measured in the cells. […] Fluorescence imagining of LALA in DC5 cells is shown in FIG. 8, where cells on a polylysine coated slide are incubated in the transport buffer with 50 μM LALA in the presence (right image) or absence (left image) the hPepT1 competitive inhibitor Gly-Pro (20 mM) for 20 minutes at room temperature. Cells are washed with cold PBS and viewed with an inverted microscope and imaged with a digital camera, with the images being at the same magnification and exposure time.

[3] = target: T3, DC5 cell line overexpressing HPEPT1 (Homo sapiens, UniProt P46059); assay: LALA fluorescent uptake in DC5 cells; type: cell-based; settings: transport buffer, 30 minutes, fluorescence
T3 construct: expressed in transfected cells; host or cells: DC5 = human medulloblastoma cell line Dpar transfected with a eukaryotic expression plasmid holding the hPept1 gene
T3 sequence (P46059 1-708): T1 sequence (P46059 1-708)
Method: (§1) FIG. 6 is a graph showing the uptake of LALA in DC5 and Dpar as a function of LALA concentration. DC5 and Dpar cells are incubated in transport buffer and the indicated concentrations of LALA added ? and (¦), respectively. These experiments are repeated in the presence of 20 mM Gly-Pro for DC5 ? and Dpar (?). After 30 minutes, the cells are washed and processed for fluorescent determination.
(§2) […] and not Dpar specifically uptake LALA. DC5 and Dpar cells are incubated in transport buffer and the indicated concentrations of LALA added ? and (¦), respectively. These experiments are repeated in the presence of 20 mM Gly-Pro for DC5 (⋄) and Dpar (?). After 30 minutes, the cells are washed and processed for fluorescent determination. […] After 30 minutes the cells are washed and the fluorescence measured in the cells. […] Because the marker probe is fluorescent, the system is amenable to more rapid throughput, through the use of automated fluorescent plate readers. Fluorescence imagining of LALA in DC5 cells is shown in FIG. 8, where cells on a polylysine coated slide are incubated in the transport buffer with 50 μM LALA in the presence (right image) or absence (left image) the hPepT1 competitive inhibitor Gly-Pro (20 mM) for 20 minutes at room temperature. […]

Dpar cells = assay: LALA fluorescent uptake in parental Dpar cells; type: cell-based, human; settings: 30 minutes, fluorescence
Method: as §1
FIG. 7 is a bar graph showing specificity of LALA uptake. 25 μM of LALA is incubated in the presence 20 mM Gly-Sar ? 20 mM Gly-Pro ? 40 mM phenylalanine ? and 40 mM proline ? in either the DC5 or the Dpar, cell line. After 30 minutes the cells are washed and the fluorescence measured in the cells. […] There is minimal LALA uptake in the parental line Dpar.
as §2, with “LALA.” for “LALA. DC5 and Dpar cells are incubated in transport buffer and the indicated concentrations of LALA added ? and (¦), respectively. These experiments are repeated in the presence of 20 mM Gly-Pro for DC5 (⋄) and Dpar (?). After 30 minutes, the cells are washed and processed for fluorescent determination.”

In the case of `N[C@@H](C(=O)N[C@@H]1C(=O)N2C(C(=O)O)=C(Cl)CS[C@H]12)c1ccccc1` [Cefaclor], the Ki [1] is listed as 5.39 mM and the Bioavailability [2] is listed as 100.
In the case of `CC1=C(C(=O)O)N2C(=O)[C@@H](NC(=O)[C@H](N)c3ccc(O)cc3)[C@H]2SC1` [Cefadroxil], the Ki [1] is given as 2.7 mM and the Bioavailability [2] is given as 100.
For `Cn1nnnc1SCC1=C(C(=O)O)N2C(=O)[C@@H](NC(=O)[C@H](O)c3ccccc3)[C@H]2SC1` [Cefamandole], the Ki [1] is listed as 16.4 mM and the Bioavailability [2] is listed as under 1 parenteral.
In the case of `CO/N=C(\C(=O)N[C@@H]1C(=O)N2C(C(=O)O)=C(CSc3nc(=O)c(=O)[nH]n3C)CS[C@H]12)c1csc(N)n1` [Ceftriaxon], the Ki [1] is given as over 20 mM and the Bioavailability [2] is given as under 5 parenteral.
In the case of `CO/N=C(\C(=O)N[C@@H]1C(=O)N2C(C(=O)O)=C(COC(N)=O)CS[C@H]12)c1ccco1` [Cefuroxime], the Ki [1] is given as 23.2 mM and the Bioavailability [2] is given as under 1 parenteral.
For `CC(=O)OCC1=C(C(=O)O)N2C(=O)[C@@H](NC(=O)Cc3cccs3)[C@H]2SC1` [Cephalothin], the Ki [1] is listed as 11.1 mM and the Bioavailability [2] is listed as under 5 parenteral.
In the case of `CC1=C(C(=O)O)N2C(=O)[C@@H](NC(=O)[C@H](N)C3=CCC=CC3)[C@H]2SC1` [Cephradine], the Ki [1] is listed as 7.02 mM and the Bioavailability [2] is listed as 100.
In the case of `NCC(=O)O.O=C(O)[C@@H]1CCCN1` [Gly-Pro, Glycine-Proline], the “Inhibition of LALA uptake (FIG. 7, specificity)” value (hPepT1) is reported as “strongly inhibited” and the “Inhibition of LALA uptake (FIGS. 5 and 6)” value (hPepT1; 20 mM Gly-Pro, range of LALA concentrations) is reported as “strongly inhibited”.
In the case of `Cc1c(CC(=O)NCCCCC(NC(=O)C(C)N)C(=O)O)c(=O)oc2cc(N)ccc12` [LALA, L-Ala-Lys-Nε-AMCA], the “LALA uptake in DC5” value [3] is reported as “specifically taken up” and the “LALA uptake in parental line Dpar” value (Dpar cells) is reported as “minimal”.
In the case of `N[C@@H](Cc1ccccc1)C(=O)O` [phenylalanine], the “Inhibition of LALA uptake (FIG. 7, specificity)” value (hPepT1) is reported as “not by amino acids”.
With `O=C(O)[C@@H]1CCCN1` [proline] the “Inhibition of LALA uptake (FIG. 7, specificity)” value (hPepT1) was “not by amino acids”.
